According to patent US10940139B2, “Compounds that interact with the Ras superfamily for the treatment of cancers, inflammatory diseases, rasopathies, and fibrotic disease” (Shy Therapeutics LLC, priority 2017, dated 2021):
pIC50: −log10 of the molar value. Like-named read-outs stand apart in the source and are kept apart here.

Key:
Assay in all cases: Ras GTP binding domain inhibition assay (labeled GTP)
[1] = biological target: KRas G12C/Q61H double mutant (Homo sapiens (Human), UniProt P01116, G12C/Q61H); details: 20 μM compound
Method in brief: (§1)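 His-tagged KRas protein (3-10 μg/ml) was captured overnight at 4° C on nickel-coated wells in 50 mM Tris pH 7.5, 1 mM MgCl2, 1 mM DTT. Bound labeled GTP was read by fluorescence after washing.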

[2] = biological target: KRas G12D/Q61H double mutant (Homo sapiens (Human), UniProt P01116, G12D/Q61H); details: for inhibition at 20 µM: 20 μM compound; for pIC50: serial dilution, read-out: KRas G12D Q61H (classes E-H, IC50)
Method in brief: as §1

KRas Q61H mutant = KRas Q61H mutant (Homo sapiens (Human), UniProt P01116, Q61H); details: 20 μM compound
Method in brief: as §1

[3] = KRas G12C/Q61H double mutant, read-out: % Inhibition at 20 μM of K-Ras mutant and wild-type protein, KRas G12C Q61H
[4] = KRas G12D/Q61H double mutant, read-out: % Inhibition at 20 μM of K-Ras mutant and wild-type protein, KRas G12D Q61H
[5] = KRas Q61H, read-out: % Inhibition at 20 μM of K-Ras mutant and wild-type protein, KRas Q61H
[6] = read-out: % Inhibition at 20 μM KRas G12C Q61H
[7] = read-out: % Inhibition at 20 μM KRas G12D Q61H
[8] = read-out: % Inhibition at 20 μM KRas Q61H

Chain of KRas G12C/Q61H double mutant (P01116-2 other isoform, or with tags, fused parts or gaps G12C/Q61H): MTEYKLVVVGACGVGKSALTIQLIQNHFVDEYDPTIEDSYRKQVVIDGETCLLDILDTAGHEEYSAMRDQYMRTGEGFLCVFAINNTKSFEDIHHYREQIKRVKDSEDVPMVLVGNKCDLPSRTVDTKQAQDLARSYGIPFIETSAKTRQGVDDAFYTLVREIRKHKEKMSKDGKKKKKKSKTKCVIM
Chain of KRas Q61H mutant (P01116-2 other isoform, or with tags, fused parts or gaps Q61H): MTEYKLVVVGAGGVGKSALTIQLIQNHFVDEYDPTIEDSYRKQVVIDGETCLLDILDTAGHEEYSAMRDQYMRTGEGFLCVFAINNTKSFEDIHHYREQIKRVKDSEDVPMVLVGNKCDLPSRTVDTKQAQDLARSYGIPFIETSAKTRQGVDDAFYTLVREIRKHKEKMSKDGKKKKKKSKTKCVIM
Chain of KRas G12D/Q61H double mutant (P01116-2 other isoform, or with tags, fused parts or gaps G12D/Q61H): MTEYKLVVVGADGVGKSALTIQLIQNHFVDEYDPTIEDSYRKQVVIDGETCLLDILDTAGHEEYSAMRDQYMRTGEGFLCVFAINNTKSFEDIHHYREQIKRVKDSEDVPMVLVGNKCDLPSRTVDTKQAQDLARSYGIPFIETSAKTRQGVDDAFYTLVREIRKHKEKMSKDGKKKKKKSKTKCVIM

Structure (SMILES)	inhibition at 20 µM [1, 3] [%]	inhibition at 20 µM [2, 4] [%]	inhibition at 20 µM (KRas Q61H mutant; [5]) [%]	inhibition at 20 µM [1, 6] [%]	inhibition at 20 µM [2, 7] [%]	inhibition at 20 µM (KRas Q61H mutant; [8]) [%]	pIC50 [2]
COC(=O)c1nc(-c2ccccn2)nc(O)c1O [drawing 3547]	76 to 100	51 to 75	51 to 75				
Nc1nc(-c2ccccn2)nc2c(Br)csc12 [drawing 2892]				1 to 25	25 to 50	25 to 50	
COC(=O)c1sc2c(O)nc(-c3ccccn3)nc2c1C [drawing 3476]	51 to 75	25 to 50	51 to 75				
N#Cc1ccc(COCC(=O)Nc2ccnc(-c3ccccn3)n2)cc1 [drawing 2796]				25 to 50	0	51 to 75	
COc1ccc(CCN(C)C(=O)c2csc3nc(-c4ccccn4)nc(N4CCOCC4)c23)cn1 [drawing 2746]				25 to 50	0	25 to 50	
Nc1nc(O)c2sc(-c3cccc(C(=O)N4CCC(O)C4)c3)cc2n1 (centres unmarked) [drawing 3543]	1 to 25	1 to 25	1 to 25				
O=C(c1csc2c(O)nc(-c3ccccn3)nc12)N1CCOC(c2nccs2)C1 (centres unmarked) [drawing 2734]				51 to 75	25 to 50	51 to 75	5.00 to 5.30
COc1cnc(CNC(=O)c2cc3nc(-c4ccccn4)nc(O)c3s2)[nH]c1=O [drawing 3521]	51 to 75	25 to 50	51 to 75				
Oc1nc(-c2ccccn2)nc2c(-c3cncc(C(F)(F)F)c3)csc12 [drawing 3466]	0	1 to 25	1 to 25				
N#Cc1cccc(N2CCN(C(=O)c3csc4c(O)nc(-c5ccccn5)nc34)CC2)c1 [drawing 2755]				25 to 50	1 to 25	25 to 50	
COc1ccncc1CCNC(=O)c1csc2nc(-c3ccccn3)nc(N3CCOCC3)c12 [drawing 2780]				1 to 25	1 to 25	25 to 50	
Cc1ccccc1N1CCN(C(=O)c2csc3c(O)nc(-c4ccccn4)nc23)CC1 [drawing 2723]				51 to 75	25 to 50	51 to 75	
Cc1sc2c(O)nc(-c3ccccn3)nc2c1C(=O)N1CCN(c2ccccc2)CC1 [drawing 3508]	51 to 75	25 to 50	51 to 75				
O=C(c1csc2c(O)nc(-c3ccccn3)nc12)N1CCOC(c2ccccc2)C1 (centres unmarked) [drawing 2766]				25 to 50	1 to 25	51 to 75	
Oc1nc(-c2ccccn2)nc2c(-c3ccccc3)csc12 [drawing 2694]				25 to 50	25 to 50	51 to 75	
O=C(NCCc1cncs1)c1csc2nc(-c3ccccn3)nc(N3CCOCC3)c12 [drawing 2749]				25 to 50	1 to 25	25 to 50	
Cc1sc2c(O)nc(-c3ccccn3)nc2c1Br [drawing 3522]	25 to 50	25 to 50	1 to 25				
COc1ncc(CCNC(=O)c2csc3nc(-c4ccccn4)nc(N4CCOCC4)c23)cn1 [drawing 2748]				25 to 50	1 to 25	25 to 50	
N#Cc1ccc(N2CCN(C(=O)c3csc4c(O)nc(-c5ccccn5)nc34)CC2)cc1 [drawing 2756]				51 to 75	0	51 to 75	
COc1cc(CCNC(=O)c2csc3nc(-c4ccccn4)nc(N4CCOCC4)c23)ccn1 [drawing 2747]				25 to 50	1 to 25	25 to 50	

Structure (SMILES)	inhibition at 20 µM [1, 3] [%]	inhibition at 20 µM [2, 4] [%]	inhibition at 20 µM (KRas Q61H mutant; [5]) [%]	inhibition at 20 µM [1, 6] [%]	inhibition at 20 µM [2, 7] [%]	inhibition at 20 µM (KRas Q61H mutant; [8]) [%]	pIC50 [2]
Oc1nc(-c2ccccn2)nc2cc(-c3ccccc3Cl)sc12 [drawing 3556]	25 to 50	1 to 25	51 to 75				
O=C(c1csc2c(O)nc(-c3ccccn3)nc12)N1CCOC(Cc2ccccc2)C1 (centres unmarked) [drawing 2771]				51 to 75	25 to 50	51 to 75	
Nc1nc(O)c2sc(-c3cccc(C(=O)NCc4ncc[nH]4)c3)cc2n1 [drawing 3545]	1 to 25	0	0				
Cc1ccc(OC2CCCC2)c(-c2csc3c(O)nc(-c4ccccn4)nc23)c1 [drawing 2844]				51 to 75	51 to 75	51 to 75	
COc1ccccc1C1CN(C(=O)c2csc3c(O)nc(-c4ccccn4)nc23)CCN1 (centres unmarked) [drawing 2772]				51 to 75	25 to 50	76 to 100	
O=C(c1csc2c(O)nc(-c3ccccn3)nc12)N1CCN(Cc2cccc(O)c2)CC1 [drawing 2726]				76 to 100	76 to 100	76 to 100	4.52 to 4.96
COc1cc(CCN(C)C(=O)c2csc3nc(-c4ccccn4)nc(N4CCOCC4)c23)ccn1 [drawing 2781]				25 to 50	0	25 to 50	
Cn1cnc(-c2nc(O)c3c(-c4ccccc4)c(-c4ccncc4)sc3n2)c1 [drawing 3528]	1 to 25	1 to 25	1 to 25				
COCCCCNC(=O)c1csc2nc(-c3ccccn3)nc(N(CCOC)CCOC)c12 [drawing 2793]				25 to 50	0	51 to 75	
CN(CCc1cccc(C#N)c1)C(=O)c1csc2nc(-c3ccccn3)nc(N3CCOCC3)c12 [drawing 2788]				51 to 75	1 to 25	51 to 75	
COC(=O)c1cc2nc(-c3ccccn3)nc(O)c2s1 [drawing 2907]				51 to 75	51 to 75	51 to 75	< 4.52
CC(c1ccccc1)N1CCN(C(=O)c2csc3c(O)nc(-c4ccccn4)nc23)CC1 (centres unmarked) [drawing 2804]				51 to 75	51 to 75	76 to 100	4.52 to 4.96
O=C(c1csc2c(O)nc(-c3ccccn3)nc12)N1CCN(Cc2ccccc2)CC1 [drawing 2762]				51 to 75	25 to 50	76 to 100	
Oc1nc(-c2ccccn2)nc2c(-c3ccc(OC4CCCCC4)cc3)csc12 [drawing 2887]				25 to 50	25 to 50	25 to 50	
COc1ccnc(-c2nc(O)c3c(Br)csc3n2)c1 [drawing 2742]				1 to 25	25 to 50	25 to 50	
Oc1nc(-c2ccccn2)nc2c(Br)c(-c3ccccc3)sc12 [drawing 3553]	1 to 25	0	1 to 25				
Nc1nc(-c2ccccn2)nc2scc(Br)c12 [drawing 2894]				25 to 50	25 to 50	51 to 75	
COc1ccccc1C1CN(C(=O)c2csc3c(O)nc(-c4ccccn4)nc23)CCO1 (centres unmarked) [drawing 2767]				51 to 75	51 to 75	76 to 100	4.52 to 4.96
O=C(c1csc2c(O)nc(-c3ccccn3)nc12)N1CCNC(Cc2ccccc2)C1 (centres unmarked) [drawing 2778]				51 to 75	25 to 50	51 to 75	
Cc1ccccc1C1CN(C(=O)c2csc3c(O)nc(-c4ccccn4)nc23)CCN1 (centres unmarked) [drawing 2775]				51 to 75	25 to 50	76 to 100	
